According to patent publication US8859535B2, “Hydroxy substituted isoquinolinone derivatives” (Novartis AG, priority 2011, dated 2014):

Legend:
Assay type in all cases: binding
[1] = molecular target: T1, human MDM2 protein (amino acids 2-188) (Homo sapiens, UniProt Q00987); assay: p53-MDM2 TR-FRET assay (p53-MDM2 Assay 1); conditions: 1.25 nM MDM2-biotinylated, 10 nM Cy5-p53 peptide; read-out: IC50 (μM) of p53-Hdm2 inhibition (TR-FRET) Assay 1
T1 construct: human MDM2 protein (amino acids 2-188); made in house
How it was run: (§1)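 C-terminally biotinylated MDM2 (aa 2-188, 1.25 nM) or MDM4 (aa 2-185, 2.5 nM) with Eu-streptavidin (0.625 nM), 15 min preincubation, then 10 nM Cy5-p53 peptide (aa18-26), 15 min room temperature; TR-FRET 665/620 nm ratio, IC50 by curve fit. Modified MDM2 Assay 2 uses 0.1 nM MDM2 and 0.1 nM Eu-streptavidin.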

[2] = molecular target: T1, human MDM2 protein (amino acids 2-188); assay: p53-MDM2 TR-FRET assay, modified (p53-MDM2 Assay 2); conditions: 0.1 nM MDM2, 0.1 nM Europium labeled streptavidin; read-out: IC50 (nM) of p53-Hdm2 inhibition (TR-FRET) Assay 2
Description: Time Resolved Fluorescence Energy Transfer (TR-FRET) Assay
The inhibition of p53-MDM2 and p53-MDM4 interactions is measured by time resolved fluorescence energy transfer (TR-FRET). Fluorescence energy transfer (or Foerster resonance energy transfer) describes an energy transfer between donor and acceptor fluorescent molecules. For this assay, human MDM2 protein (amino acids 2-188) and human MDM4 protein (amino acids 2-185), tagged with a C-terminal biotin moiety, are used in combination with a Europium labeled streptavidin (Perkin Elmer, Inc., Waltham, Mass., USA) serving as the donor fluorophore. The p53 derived, Cy5 labeled peptide Cy5-TFSDLWKLL (p53 aa18-26) is the energy acceptor. Upon excitation of the donor molecule at 340 nm, binding interaction between MDM2 or MDM4 and the p53 peptide induces energy transfer and enhanced response at the acceptor emission wavelength at 665 nm. Disruption of the formation of the p53-MDM2 or p53-MDM4 complex due to an inhibitor molecule binding to the p53 binding site of MDM2 or MDM4 results in increased donor emission at 620 nm. The ratiometric FRET assay readout is calculated from the raw data of the two distinct fluorescence signals measured in time resolved mode (fluorescence 665 nm/fluorescence 620 nm×1000).
After addition of 1.25 nM MDM2-biotinylated or 2.5 nM MDM4-biotinylated (internal preparations), and 0.625 nM Europium labeled streptavidin (Perkin Elmer), the solution is pre-incubated for 15 minutes at room temperature, then 10 nM Cy5-p53 peptide (internal preparation) is added before an incubation at room temperature for 15 minutes prior to reading the plate. For measurement of samples, a Victor II microplate reader (Perkin Elmer) is used with the following settings: Excitation 340 nm, Emission Donor 620 nm and Emission Acceptor 665 nm. IC50 values are calculated by curve fitting using XLfit. If not specified, reagents are purchased from Sigma-Aldrich Chemie GmBH, Buchs, Switzerland.
This assay was used to evaluate compounds displaying inhibition of p53-MDM2 interaction and p53-MDM4 interaction at IC50s of 0.005 to 50 μM (p53-MDM2 Assay 1 and p53-MDM4 Assay 1, respectively). For selected compounds displaying IC50s between […] on MDM2, a slightly modified assay is used with the following adaptations: 0.1 nM MDM2, 0.1 nM Europium labeled streptavidin and Tecan genios Pro is used as a microplate reader for the fluorescence measurements (p53-MDM2 Assay 2).

[3] = molecular target: T2, human MDM4 protein (amino acids 2-185) (Homo sapiens, UniProt O15151); assay: p53-MDM4 TR-FRET assay (p53-MDM4 Assay 1); conditions: 2.5 nM MDM4-biotinylated, 10 nM Cy5-p53 peptide; read-out: IC50 (μM) of p53-Hdm4 inhibition (TR-FRET) Assay 1
T2 construct: human MDM4 protein (amino acids 2-185); made in house
T2 sequence (O15151 2-185): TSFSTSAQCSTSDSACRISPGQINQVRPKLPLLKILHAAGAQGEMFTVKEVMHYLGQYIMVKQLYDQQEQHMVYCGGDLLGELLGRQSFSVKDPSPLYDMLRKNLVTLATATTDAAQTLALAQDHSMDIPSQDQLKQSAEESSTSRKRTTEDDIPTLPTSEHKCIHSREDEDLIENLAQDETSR
How it was run: as §1

T1 sequence (Q00987 2-188): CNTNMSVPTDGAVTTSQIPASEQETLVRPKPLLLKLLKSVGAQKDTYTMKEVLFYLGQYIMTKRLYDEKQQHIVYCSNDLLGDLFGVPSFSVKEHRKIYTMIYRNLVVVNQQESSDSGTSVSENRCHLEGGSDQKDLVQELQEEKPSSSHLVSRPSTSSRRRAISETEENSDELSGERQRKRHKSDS

Compound | IC50 [1] [µM] | IC50 [2] [nM] | IC50 [3] [µM]
COc1cc2c(cc1OC(C)C)[C@H](c1ccc(Cl)cc1)N(c1ccc(C(C)(O)C3CC4CCC(C3)N4C(=O)N(C)C)cc1)C(=O)C2 (stereo partly drawn) [Example 108, 3-(1-{4-[(S)-1-(4-Chloro-phenyl)-7-isopropoxy-6-methoxy-3-oxo-3,4-dihydro-1H-isoquinolin-2-yl]-phenyl}-1-hydroxy-ethyl)-8-aza-bicyclo[3.2.1]octane-8-carboxylic acid dimethylamide] | 0.0027 | 2.07 | 1.99
COc1cc2c(cc1OC(C)C)[C@H](c1ccc(Cl)cc1)N(c1ccc(C(C)(O)C3CC4CCCC(C3)N4CC(F)(F)F)cc1)C(=O)C2 (stereo partly drawn) [Example 118, (S)-1-(4-Chloro-phenyl)-2-(4-{1-hydroxy-1-[9-(2,2,2-trifluoro-ethyl)-9-aza-bicyclo[3.3.1]non-3-yl]-ethyl}-phenyl)-7-isopropoxy-6-methoxy-1,4-dihydro-2H-isoquinolin-3-one] | 0.0129 | 13.7 | 25.1
COc1cc2c(cc1OC(C)C)[C@H](c1ccc(Cl)cc1)N(c1ccc(C(C)(O)C3CC4CCC(C3)N4S(C)(=O)=O)cc1)C(=O)C2 (stereo partly drawn) [Example 107, (S)-1-(4-Chloro-phenyl)-2-{4-[1-hydroxy-1-(8-methanesulfonyl-8-aza-bicyclo[3.2.1]oct-3-yl)-ethyl]-phenyl}-7-isopropoxy-6-methoxy-1,4-dihydro-2H-isoquinolin-3-one] | 0.0028 | 1.55 | 2.48
COc1cc2c(cc1OC(C)C)[C@H](c1ccc(Cl)cc1)N(c1ccc(C(C)(O)C3CC4CCC(C3)N4CC(F)(F)F)cc1)C(=O)C2 (stereo partly drawn) [Example 106, (S)-1-(4-Chloro-phenyl)-2-(4-{1-hydroxy-1-[8-(2,2,2-trifluoro-ethyl)-8-aza-bicyclo[3.2.1]oct-3-yl]-ethyl}-phenyl)-7-isopropoxy-6-methoxy-1,4-dihydro-2H-isoquinolin-3-one] | 0.0049 | 1.97 | 8.84
COc1cc2c(cc1OC(C)C)[C@H](c1ccc(Cl)cc1)N(c1ccc(C(C)(O)C3CC4CCC(C3)N4CCO)cc1)C(=O)C2 (stereo partly drawn) [Example 113, (S)-1-(4-Chloro-phenyl)-2-(4-{1-hydroxy-1-[8-(2-hydroxy-ethyl)-8-aza-bicyclo[3.2.1]oct-3-yl]-ethyl}-phenyl)-7-isopropoxy-6-methoxy-1,4-dihydro-2H-isoquinolin-3-one] | 0.0048 | 2.52 | 4.45
COc1cc2c(cc1OC(C)C)[C@H](c1ccc(Cl)cc1)N(c1ccc(C(C)(O)C3CCN(CCO)CC3)cc1)C(=O)C2 (stereo partly drawn) [Example 93, (S)-1-(4-Chloro-phenyl)-2-(4-{1-hydroxy-1-[1-(2-hydroxy-ethyl)-piperidin-4-yl]-ethyl}-phenyl)-7-isopropoxy-6-methoxy-1,4-dihydro-2H-isoquinolin-3-one] | 0.0027 | 2.3 | 3.35
CC[C@@H](C)Oc1cc2c(cc1OC)CC(=O)N(c1ccc(C(C)(O)C3CCN(C(C)=O)CC3)cc1)[C@H]2c1ccc(Cl)cc1 (stereo partly drawn) [Example 52, (S)-2-{4-[1-(1-Acetyl-piperidin-4-yl)-1-hydroxy-ethyl]-phenyl}-7-((R)-sec-butoxy)-1-(4-chloro-phenyl)-6-methoxy-1,4-dihydro-2H-isoquinolin-3-one] | 0.0018 | 1.98 | 2.32
COC(=O)N1CCC(C(C)(O)c2ccc(N3C(=O)Cc4cc(OC)c(OC(C)C)cc4[C@@H]3c3ccc(Cl)cc3)cc2)CC1 (stereo partly drawn) [Example 76, 4-(1-{4-[(S)-1-(4-Chloro-phenyl)-7-isopropoxy-6-methoxy-3-oxo-3,4-dihydro-1H-isoquinolin-2-yl]-phenyl}-1-hydroxy-ethyl)-piperidine-1-carboxylic acid methyl ester] | 0.0017 | 2.34 | 1.91
COc1cc2c(cc1OC(C)C)[C@H](c1ccc(Cl)cc1)N(c1ccc(C(C)(O)C3CC4CCC(C3)N4C3COC3)cc1)C(=O)C2 (stereo partly drawn) [Example 115, (S)-1-(4-Chloro-phenyl)-2-{4-[1-hydroxy-1-(8-oxetan-3-yl-8-aza-bicyclo[3.2.1]oct-3-yl)-ethyl]-phenyl}-7-isopropoxy-6-methoxy-1,4-dihydro-2H-isoquinolin-3-one] | 0.0051 | 5.11 | 5.39
COc1cc2c(cc1OC(C)C)[C@H](c1ccc(Cl)cc1)N(c1ccc(C(C)(O)C3CC4CCCC(C3)S4(=O)=O)cc1)C(=O)C2 (mixture of isomers) [Example 175, (S)-1-(4-Chloro-phenyl)-2-{4-[1-(9,9-dioxo-9-thia-bicyclo[3.3.1]non-3-yl)-1-hydroxy-ethyl]-phenyl}-7-isopropoxy-6-methoxy-1,4-dihydro-2H-isoquinolin-3-one] | 0.0028 | 1.92 | 3.58
CCN1C2CCC1CC(C(C)(O)c1ccc(N3C(=O)Cc4cc(OC)c(OC(C)C)cc4[C@@H]3c3ccc(Cl)cc3)cc1)C2 (stereo partly drawn) [Example 112, (S)-1-(4-Chloro-phenyl)-2-{4-[1-(8-ethyl-8-aza-bicyclo[3.2.1]oct-3-yl)-1-hydroxy-ethyl]-phenyl}-7-isopropoxy-6-methoxy-1,4-dihydro-2H-isoquinolin-3-one] | 0.003 | 2.76 | 3.46
COc1cc2c(cc1OC(C)C)[C@H](c1ccc(Cl)cc1)N(c1ccc(C(C)(O)C3CC4CCC(C3)N4C=O)cc1)C(=O)C2 (stereo partly drawn) [Example 111, 3-(1-{4-[(S)-1-(4-Chloro-phenyl)-7-isopropoxy-6-methoxy-3-oxo-3,4-dihydro-1H-isoquinolin-2-yl]-phenyl}-1-hydroxy-ethyl)-8-aza-bicyclo[3.2.1]octane-8-carbaldehyde] | 0.0021 | 1.5 | 2.55
COc1cc2c(cc1OC(C)C)[C@H](c1ccc(Cl)cc1)N(c1ccc([C@@](C)(O)C3CCN(C)CC3)cc1)C(=O)C2 (single isomer, unassigned) [Example 94] | 0.0016 | 1.06 | 1.75
COc1cc2c(cc1OC(C)C)[C@H](c1ccc(Cl)cc1)N(c1ccc(C(C)(O)C3CC4CCC(C3)O4)cc1)C(=O)C2 (mixture of isomers) [Example 158, (S)-1-(4-Chloro-phenyl)-2-{4-[1-hydroxy-1-(8-oxabicyclo[3.2.1]oct-3-yl)-ethyl]-phenyl}-7-isopropoxy-6-methoxy-1,4-dihydro-2H-isoquinolin-3-one] | 0.0028 | 1.2 | 2.84
COc1cc2c(cc1OC(C)C)[C@H](c1ccc(Cl)cc1)N(c1ccc(C(C)(O)C3CC4CCCC(C3)N4C=O)cc1)C(=O)C2 (stereo partly drawn) [Example 117, 3-(1-{4-[(S)-1-(4-Chloro-phenyl)-7-isopropoxy-6-methoxy-3-oxo-3,4-dihydro-1H-isoquinolin-2-yl]-phenyl}-1-hydroxy-ethyl)-9-aza-bicyclo[3.3.1]nonane-9-carbaldehyde] | 0.0028 | 1.6 | 2.88
COc1cc2c(cc1OC(C)C)[C@H](c1ccc(Cl)cc1)N(c1ccc([C@@](C)(O)C3CCS(=O)(=O)CC3)cc1)C(=O)C2 [Example 168, (S)-1-(4-Chloro-phenyl)-2-{4-[(S)-1-(1,1-dioxo-hexahydro-1-thiopyran-4-yl)-1-hydroxy-ethyl]-phenyl}-7-isopropoxy-6-methoxy-1,4-dihydro-2H-isoquinolin-3-one] | 0.0015 | 1.25 | 1.96
